Measurements reported in patent US9901615B2, “Method for treatment of gastric ulcers” (priority 2015, dated 2018).
Where no end group is shown, it is not given here.

Legend:
[1] = Sub-acute oral toxicity of TP4; format: in vivo, C3H/HeN mice; conditions: 3-fold therapeutic doses orally for 14 days, observed days 1 to 28
Protocol: (§1) Acute toxicity was assessed in C3H/HeN mice with 6 animals per group, by single oral administration of TP4 (125 mg/kg). […] Subacute toxicity: animals were administered with TP4 (600 μg dose/day) for 14 days. During dose administration, the animals were observed every day for any signs of toxicity for 28 days test period. The morbidity, mortality, and other clinical signs were recorded and assessed.

Dermal toxicity of TP4 = format: in vivo, C3H/HeN mice
Protocol: TP4 (125 mg/kg) was applied onto the mouse skin (topical).

[2] = Acute oral toxicity of TP4; parameters: species or system C3H/HeN mice; conditions: single oral dose, 10-fold the in vivo therapeutic dose, 24 hours
Protocol: as §1

[3] = Eye irritation test of TP4 in New Zealand White rabbits; format: in vivo; conditions: for Abnormality iris, grading / Chemosis, grading / Conjunctivae redness, grading / Corneal opacity, grading: rabbits, OECD 405 grading
Protocol: Healthy young adults rabbit eyes were treated with TP4, PBS (vehicle control), or 0.1% SDS (positive control). […] […] Clinical signs were recorded during the test period, and grades were assigned for ocular reactions during examination.

For “FIHHIIGGLFSAGKAIHRLIRRRRR [TP4, Nile tilapia piscidin 4]”, which “clinical complications, sub-acute oral toxicity” value [1] is on record?
Its value is “did not induce clinical complications”.

And the dermal toxicity (Dermal toxicity of TP4; dermal exposure, 14 days observation period)?
Its dermal toxicity is “No mortality or damaging effects were observed”.

And the “appearance of the skin” value (Dermal toxicity of TP4; mice, 48 h post-exposure, 125 mg/kg TP4 or 20% SDS (FIG. 17B))?
The value was “no obvious lesions were observed”.

What about the “clinical signs, acute oral toxicity” value [2] of the same sequence?
The value was “did not exhibit any abnormal clinical signs”.

And the ocular appearance ([3]; rabbits treated with 50 mg/kg TP4 or SDS for 7 days, observed daily (FIG. 17A))?
The ocular appearance was “no ocular lesions were detected”.

What about the “Abnormality iris, grading” value ([3]; Day 1) of the same sequence?
Its value is 0.

What about the “Chemosis, grading” value ([3]; Day 1) of the same sequence?
Its value is 0.

And the “Conjunctivae redness, grading” value ([3]; Day 1)?
Its value is 0.

And the “Corneal opacity, grading” value ([3]; Day 1)?
The value was 0.

And the “Abnormality iris, grading” value ([3]; Day 3)?
Its value is 0.

What about the “Chemosis, grading” value ([3]; Day 3) of the same sequence?
The value was 0.1.

What about the “Conjunctivae redness, grading” value ([3]; Day 3) of the same sequence?
The value was 0.

And the “Corneal opacity, grading” value ([3]; Day 3)?
Its value is 0.

And the “Abnormality iris, grading” value ([3]; Day 5)?
Its value is 0.

And the “Chemosis, grading” value ([3]; Day 5)?
The value was 0.1.

What about the “Conjunctivae redness, grading” value ([3]; Day 5) of the same sequence?
Its value is 0.1.

And the “Corneal opacity, grading” value ([3]; Day 5)?
Its value is 0.1.

What about the “Abnormality iris, grading” value ([3]; Day 7) of the same sequence?
Its value is 0.

What about the “Chemosis, grading” value ([3]; Day 7) of the same sequence?
Its value is 0.1.

And the “Conjunctivae redness, grading” value ([3]; Day 7)?
The value was 0.

What about the “Corneal opacity, grading” value ([3]; Day 7) of the same sequence?
Its value is 0.1.

And the “Abnormality iris, grading” value ([3]; Recovery, Day 14)?
Its value is 0.

And the “Chemosis, grading” value ([3]; Recovery, Day 14)?
The value was 0.

And the “Conjunctivae redness, grading” value ([3]; Recovery, Day 14)?
Its value is 0.

What about the “Corneal opacity, grading” value ([3]; Recovery, Day 14) of the same sequence?
Its value is 0.
